Source: the supplement of paper PMC10307832

What was measured:
Experiment in all cases: relative viability (nuclei count vs DMSO), 5 days (fraction); higher = more cells survive
Tipifarnib + Phenformin = compound: Cn1cncc1[C@@](N)(c1ccc(Cl)cc1)c1ccc2c(c1)c(-c1cccc(Cl)c1)cc(=O)n2C [Tipifarnib] + N=C(N)NC(=N)NCCc1ccccc1 [Phenformin] (partner 250 µM)
Summary of the method: (§1)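 Five library-drug doses in √10 steps were combined with a fixed anchor-drug dose, or a single drug was given alone, by pin tool to lung cancer cell lines in 1536-well plates the day after seeding. Nuclei were stained and counted after 5 days. Relative viability is the nuclei count in treated wells over that in vehicle wells, taken as the median of duplicate plates.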

Tipifarnib + AZD7762 = compound: Cn1cncc1[C@@](N)(c1ccc(Cl)cc1)c1ccc2c(c1)c(-c1cccc(Cl)c1)cc(=O)n2C [Tipifarnib] + NC(=O)Nc1cc(-c2cccc(F)c2)sc1C(=O)N[C@H]1CCCNC1 [AZD7762] (partner 0.2 µM)
Summary of the method: as §1

Tipifarnib + Alpelisib = compound: Cn1cncc1[C@@](N)(c1ccc(Cl)cc1)c1ccc2c(c1)c(-c1cccc(Cl)c1)cc(=O)n2C [Tipifarnib] + Cc1nc(NC(=O)N2CCC[C@H]2C(N)=O)sc1-c1ccnc(C(C)(C)C(F)(F)F)c1 [Alpelisib] (partner 2 µM)
Summary of the method: as §1

Tipifarnib + Pictilisib = compound: Cn1cncc1[C@@](N)(c1ccc(Cl)cc1)c1ccc2c(c1)c(-c1cccc(Cl)c1)cc(=O)n2C [Tipifarnib] + CS(=O)(=O)N1CCN(Cc2cc3nc(-c4cccc5[nH]ncc45)nc(N4CCOCC4)c3s2)CC1 [Pictilisib] (partner 1 µM)
Summary of the method: as §1

Cell Line | relative viability (Tipifarnib + Phenformin; first compound 0.01 µM) | relative viability (Tipifarnib + Phenformin; first compound 0.03162 µM) | relative viability (Tipifarnib + Phenformin; first compound 0.1 µM) | relative viability (Tipifarnib + Phenformin; first compound 0.3162 µM) | relative viability (Tipifarnib + Phenformin; first compound 1 µM) | relative viability (Tipifarnib + AZD7762; first compound 0.01 µM) | relative viability (Tipifarnib + AZD7762; first compound 0.03162 µM) | relative viability (Tipifarnib + AZD7762; first compound 0.1 µM) | relative viability (Tipifarnib + AZD7762; first compound 0.3162 µM) | relative viability (Tipifarnib + AZD7762; first compound 1 µM) | relative viability (Tipifarnib + Alpelisib; first compound 0.01 µM) | relative viability (Tipifarnib + Alpelisib; first compound 0.03162 µM) | relative viability (Tipifarnib + Alpelisib; first compound 0.1 µM) | relative viability (Tipifarnib + Alpelisib; first compound 0.3162 µM) | relative viability (Tipifarnib + Alpelisib; first compound 1 µM) | relative viability (Tipifarnib + Pictilisib; first compound 0.01 µM) | relative viability (Tipifarnib + Pictilisib; first compound 0.03162 µM) | relative viability (Tipifarnib + Pictilisib; first compound 0.1 µM) | relative viability (Tipifarnib + Pictilisib; first compound 0.3162 µM) | relative viability (Tipifarnib + Pictilisib; first compound 1 µM)
NCI-H1395 | 0.444 | 0.398 | 0.428 | 0.436 | 0.348 | 0.363 | 0.367 | 0.398 | 0.375 | 0.329 | 0.92 | 1.03 | 0.894 | 0.693 | 0.6 | 0.578 | 0.547 | 0.538 | 0.47 | 0.521
NCI-H1437 | 0.266 | 0.315 | 0.296 | 0.218 | 0.228 | 1.12 | 1.14 | 1.1 | 1.06 | 1.11 | 1.02 | 1.02 | 0.931 | 0.76 | 0.688 | 0.457 | 0.466 | 0.45 | 0.343 | 0.212
NCI-H1651 | 0.322 | 0.327 | 0.319 | 0.266 | 0.235 | 0.536 | 0.467 | 0.524 | 0.44 | 0.363 | 1.32 | 1.01 | 1.03 | 0.837 | 0.811 | 0.632 | 0.566 | 0.562 | 0.512 | 0.319
NCI-H1666 | 0.526 | 0.502 | 0.552 | 0.471 | 0.575 | 0.892 | 0.807 | 0.794 | 0.661 | 0.554 | 1 | 0.725 | 0.851 | 0.717 | 0.538 | 0.464 | 0.393 | 0.419 | 0.332 | 0.367
NCI-H1734 | 0.391 | 0.352 | 0.373 | 0.251 | 0.275 | 0.537 | 0.46 | 0.403 | 0.352 | 0.257 | 0.714 | 0.598 | 0.592 | 0.501 | 0.418 | 0.486 | 0.356 | 0.38 | 0.331 | 0.346
NCI-H1755 | 0.703 | 0.594 | 0.564 | 0.577 | 0.418 | 0.411 | 0.453 | 0.416 | 0.365 | 0.395 | 0.916 | 0.848 | 0.868 | 0.804 | 0.808 | 0.466 | 0.358 | 0.423 | 0.344 | 0.274
NCI-H1792 | – | – | 0.125 | 0.0695 | 0.114 | 0.722 | 0.417 | 0.373 | 0.237 | 0.173 | 0.699 | 0.643 | 0.345 | 0.293 | 0.281 | 0.237 | 0.235 | 0.152 | 0.117 | 0.131
NCI-H1793 | 0.357 | 0.371 | 0.354 | 0.194 | 0.267 | 0.605 | 0.426 | 0.379 | 0.302 | 0.2 | 0.811 | 0.691 | 0.565 | 0.453 | 0.396 | 0.446 | 0.256 | 0.307 | 0.247 | 0.265
NCI-H1915 | 0.383 | 0.359 | 0.341 | 0.267 | 0.236 | 0.643 | 0.583 | 0.398 | 0.332 | 0.319 | 0.817 | 0.624 | 0.544 | 0.48 | 0.457 | 0.581 | 0.513 | 0.511 | 0.397 | 0.31
NCI-H1944 | 0.207 | 0.194 | 0.163 | 0.155 | 0.168 | 0.515 | 0.435 | 0.295 | 0.299 | 0.306 | 0.805 | 0.742 | 0.648 | 0.54 | 0.572 | 0.38 | 0.313 | 0.348 | 0.295 | 0.279
NCI-H1975 | 0.435 | 0.403 | 0.413 | 0.347 | 0.274 | 0.89 | 0.9 | 0.688 | 0.623 | 0.616 | 0.713 | 0.599 | 0.468 | 0.329 | 0.351 | 0.347 | 0.293 | 0.255 | 0.228 | 0.259
NCI-H1993 | 0.414 | 0.508 | 0.529 | 0.518 | 0.559 | 0.765 | 0.591 | 0.571 | 0.437 | 0.484 | 0.71 | 0.679 | 0.675 | 0.677 | 0.671 | 0.686 | 0.812 | 0.861 | 0.888 | 0.913
NCI-H2085 | 0.777 | 0.442 | 0.433 | 0.385 | 0.532 | 0.979 | 0.73 | 0.67 | 0.478 | 0.552 | 0.924 | 0.709 | 0.605 | 0.599 | 0.533 | 0.513 | 0.478 | 0.446 | 0.541 | 0.43
NCI-H2087 | 0.463 | 0.38 | 0.298 | 0.294 | 0.222 | 0.99 | 0.48 | 0.249 | 0.241 | 0.395 | 1.17 | 0.635 | 0.3 | 0.371 | 0.406 | 0.796 | 0.682 | 0.587 | 0.427 | 0.385
NCI-H2126 | 0.56 | 0.532 | 0.517 | 0.49 | 0.435 | 1.01 | 1 | 0.991 | 0.962 | 0.716 | 0.759 | 0.729 | 0.799 | 0.733 | 0.706 | 0.491 | 0.492 | 0.518 | 0.478 | 0.391
NCI-H2170 | 0.439 | 0.418 | 0.389 | 0.379 | 0.343 | 0.98 | 0.885 | 0.701 | 0.644 | 0.506 | 0.839 | 0.818 | 0.74 | 0.671 | 0.699 | 0.317 | 0.291 | 0.295 | 0.278 | 0.222
